The values below are quoted from earlier work in patent US10214591B1, “Monoclonal antibody to human line-1 ORF2 protein and method for early detection of transforming cells in pre-neoplastic tissues of a human subject” (Alienor Farma, priority 2015, dated 2019).

One data set deals with human tumorigenic cells. As to conditions: xenografted mice.

In the case of `O=C1Nc2ccc(Cl)cc2[C@@](C#CC2CC2)(C(F)(F)F)O1` [efavirenz, (S)-6-Chloro-4-(cyclopropylethynyl)-1,4-dihydro-4-(trifluoromethyl)-2H-3,1 benzoxazin-2-one], the “effect on proliferation and differentiation of cancer cells” value in the data set with tumorigenic cell lines is “reduced proliferation and enhanced differentiation”. Moreover, the “effect on tumor progression” value with human tumorigenic cells is listed as “arrest, or a significant reduction, of tumor progression”. With `Cc1ccnc2c1NC(=O)c1cccnc1N2C1CC1` [nevirapine], in the data set on tumorigenic cell lines, the “effect on proliferation and differentiation of cancer cells” value is “reduced proliferation and enhanced differentiation”.
